Patent US20260076948A1, “TREATMENT OF DIABETIC RETINOPATHY USING ENDOTHELIN RECEPTOR ANTAGONISTS” (Perfuse Therapeutics, Inc., priority 2019, published 2026)
“Also recorded” adds a separate entry of the source.

Assays:
[1] = Pharmacokinetics after topical administration in the rabbit; format: in vivo, Dutch-belted rabbits; details: single eye drop 100 μg, 10 minutes, 2 and 7 hours
Description: To determine the pharmacokinetic properties of Edonentan following topical administration in the rabbit, rabbits (Dutch-belted rabbits) received an eye drop in both eyes (100 μg of Edonentan, 35 μL dose volume/eye). After the administrations, the animals (N=2) were euthanized at different time points (e.g. 10 minutes (immediately after pot-dose), 2 and 7 hours) and tissues were collected for analysis. List of tissues collected include plasma, retina, vitreous humor and bulbar conjunctiva.

[2] = test system: laser-induced glaucoma model; assay: Laser-induced non-human primate glaucoma model, ONH blood flow by LSFG after IVT administration; format: in vivo, rhesus macaque, Macaca Mulatta
Description: Non-human primates (rhesus macaque, Macaca Mulatta) were obtained for this study. One eye of each animal underwent induction of elevation of intraocular pressure (IOP) by repeated laser photocoagulation of the trabecular meshwork. Imaging sessions were repeated to monitor the optic nerve head (ONH) and retinal structural changes. A study was performed to compare an experimental glaucoma eye and a contralateral healthy eye (control) of three non-human primates in global average mean blur rate (MBR) and MBR change from baseline over time as an index of ONH blood flow in a laser-induced glaucoma model. More specifically, a vehicle control, 0.02 mg/mL of Edonentan, 0.2 mg/mL of Edonentan, or 2.0 mg/mL of Edonentan was intravitreally administered ([…]) to a glaucomatous eye of each of three non-human primates (rhesus macaque, Macaca Mulatta). These graphs show the ONH blood flow in the three non-human primates after IVT administration of a vehicle alone (FIG. 7A, FIG. 7E, and FIG. 7I), 0.02 mg/mL of Edonentan (FIG. 7B, FIG. 7F, and FIG. 7J), 0.2 mg/mL of Edonentan (FIG. 7C, FIG. 7G, and FIG. 7K) or 2.0 mg/mL of Edonentan (FIG. 7D, FIG. 7H, and FIG. 7L). […] In one of the above three non-human primates, an LSFG scan was performed at various selected time points when Edonentan was administered at 2.0 mg/mL.

[3] = Pharmacokinetics after intravitreal administration in the rabbit; format: in vivo, rabbits (Oryctolagus cuniculus); details: IVT, plasma and ocular tissues
Description: To determine the pharmacokinetic and safety properties of Edonentan following intravitreal administration in the rabbit, rabbits (Oryctolagus cuniculus) received bilateral intravitreal injections (20 μL injection volume/eye). Following the injections, animals were tranquilized with a ketamine/xylazine cocktail, and then the animals were euthanized with an overdose of sodium pentobarbital (Euthasol). Animals designated for the pharmacokinetic analysis were euthanized at different time points (e.g. 12, 16, 24, 36 and 48 hours). At least 1.0 mL of whole blood was drawn from the marginal ear vein or cardiac puncture (terminal bleed only) into K2EDTA tubes for plasma collection and processed for analytical analysis.
Immediately following euthanasia, the eyes was enucleated. Aqueous humor from both eyes was removed via syringe and snap frozen for analysis. Eyes were dissected when frozen to isolate various ocular tissues and minimize drug diffusion to adjacent tissues. Tissues from left and right eyes were collected in separate vials for analysis. List of tissues collected include plasma and aqueous humor, iris/ciliary body (ICB), retina, vitreous humor and RPE/choroid. The pharmacokinetic properties of intravitreally delivered Edonentan in rabbits are shown in FIG. 9A, FIG. 9B, FIG. 9C and FIG. 9D.

[4] = test system: oxygen-induced ischemic retinopathy (OIR); assay: Mouse oxygen-induced ischemic retinopathy (OIR), retinal hypoxia area; format: in vivo; details: OIR mice, IVT single dose 1 μL of 2 μg/μL; 24, 48, 96 hours
Description: A relevant mice model was used to obtain the retinal hypoxia area in mice with oxygen-induced ischemic retinopathy (OIR) at different time points, as shown in FIG. 4. […] Briefly, at P17, mice with OIR (n=60) were given an injection of ET-1 antagonist (1 μL of 2 μg/μL Edonentan formulation, single dose) in one eye and PBS in the fellow eye. At 24, 48, and 96 hours after injection, mice (n=10 for each time point) were euthanized and the retinas were dissected and stained with GSA lectin and hypoxyprobe. The area of NV, area of retinal hypoxia, and the area of retinal nonperfusion were determined for each retina.

[5] = Solubility (pH 2, pH 7, ethyl acetate); format: physicochemical
Source text: (§1) In the above table, the physicochemical data, e.g., solubility, were obtained following standard protocols known in the field (see, e.g., Reis et al., Mini Rev Med Chem., 2010, 10(11):1071-6; Avdeef et al., Expert Opin Drug Metab Toxicol., 2005, 1(2):325-42; Bharate et al., Comb Chem High Throughput Screen., 2016, 19(6):461-9; and Jain et al., J Pharm Biomed Anal., 2013, 86:11-35.); and the biochemical data, i.e., potency for ETA/ETB, were obtained following the protocols known in the field (see, e.g., Kirkby et al., Br J Pharmacol., 2008, 153(6):1105-19; and Maguire et al., Br J Pharmacol., 2014, 171(24):5555-72.).

[6] = Stability in solid state; format: physicochemical; details: 2 h@125° C.
Source text: as §1

[7] = test system: ETA/ETB receptor; details: background statement; cited from earlier work

t1/2 after intravitreal delivery [3]: longer t1/2
Solubility in Ethyl Acetate, rating in words ([5]; ethyl acetate): Good
Solubility at pH 2 ([5]; pH 2): <1 μM
Solubility at pH 7, comparison in words ([5]; pH 7): superior to that of A-182086
Stability in Solid State, in words [6]: Stable
Structure (SMILES): Cc1onc(NS(=O)(=O)c2ccccc2-c2ccc(-c3ncco3)cc2CN(C)C(=O)CC(C)(C)C)c1C [Edonentan, N-[[2′-[[(4,5-dimethyl-3-isoxazolyl)amino]sulfonyl]-4-(2-oxazolyl)[1,1′-biphenyl]-2-yl]methyl]-N,3,3-trimethylbutanamide]
Tissue exposure after topical administration (plasma, retina, vitreous humor, bulbar conjunctiva) [1]: detected in all tissues examined at all timepoints; also recorded: penetrate through ocular layers
ONH blood flow (global average MBR, LSFG), individual animals ([2]; IVT 0.02, 0.2 or 2.0 mg/mL Edonentan, glaucomatous eye, over 6 hours): improvement of ONH blood flow in a dose-dependent manner
ONH blood flow, aggregate of three non-human primates ([2]; IVT 0.02, 0.2 or 2.0 mg/mL, experimental glaucoma eyes vs control eyes): does-related increase of ONH blood flow
Retinal hypoxia area [4]: improvement of retinal hypoxia; also recorded: improved retinal hypoxia
Endothelin receptor antagonism, description in words [7]: highly selective and very potent endothelin A receptor antagonist
